Measurements: patent publication US20260250322A1, “NEW PEPTIDES AS SELECTIVE IL-23 RECEPTOR INHIBITORS” (SANOFI, priority 2023, published 2026)
Numbered stars: 1 amine (or outer) side, 2 acyl side, 3 side chain; on linkers, the order of the positions; unused ones are H or OH. Bridge positions count the residues as written; N and C are the ends. Square brackets hold non-standard residues; d marks the D form. Peptide text beside a SMILES is read from it. Tyr(Me) = Yme = 4-methoxy-L-phenylalanine (O-methyl-tyrosine), COc1ccc(C[C@H](N[*:1])C(=O)[*:2])cc1; 1Nal = N[C@@H](Cc1cccc2ccccc12)C(=O)O; 2Nal = N[C@@H](Cc1ccc2ccccc2c1)C(=O)O; AEF = NCCOc1ccc(C[C@H](N)C(=O)O)cc1; Orn = NCCC[C@H](N)C(=O)O; Thp = NC1(C(=O)O)CCOCC1; Aib = CC(C)(N)C(=O)O

T1: IL-23 receptor on the surface of HEK-Blue IL-23 cells (UniProt Q5VWK5 24-629, limits assumed)
T1 sequence (looked up): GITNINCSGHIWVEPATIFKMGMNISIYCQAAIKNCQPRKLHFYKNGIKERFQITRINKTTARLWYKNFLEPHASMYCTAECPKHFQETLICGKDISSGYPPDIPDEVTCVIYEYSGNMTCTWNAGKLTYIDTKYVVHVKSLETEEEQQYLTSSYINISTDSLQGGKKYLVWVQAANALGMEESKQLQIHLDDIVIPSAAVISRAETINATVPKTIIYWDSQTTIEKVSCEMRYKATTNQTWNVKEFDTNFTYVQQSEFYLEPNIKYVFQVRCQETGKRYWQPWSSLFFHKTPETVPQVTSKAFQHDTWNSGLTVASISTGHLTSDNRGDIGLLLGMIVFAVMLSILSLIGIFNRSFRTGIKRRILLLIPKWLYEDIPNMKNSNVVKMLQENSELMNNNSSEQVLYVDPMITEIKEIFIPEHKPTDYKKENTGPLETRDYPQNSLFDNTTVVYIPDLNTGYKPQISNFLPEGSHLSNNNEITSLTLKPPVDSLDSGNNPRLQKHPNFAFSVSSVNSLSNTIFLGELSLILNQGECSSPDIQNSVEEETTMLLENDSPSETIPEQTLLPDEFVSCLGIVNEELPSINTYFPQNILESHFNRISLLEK

B1: peptide compound SEQ ID NO: 32 (peptide)
peptide: Ac-[dK]NTWQ[Aib][Tyr(Me)][2Nal][Aib]DNN-NH2
modifications: lactam 1-10
SMILES: COc1ccc(C[C@@H]2NC(=O)C(C)(C)NC(=O)[C@H](CCC(N)=O)NC(=O)[C@H](Cc3c[nH]c4ccccc34)NC(=O)[C@H]([C@@H](C)O)NC(=O)[C@H](CC(N)=O)NC(=O)[C@H](NC(C)=O)CCCCNC(=O)C[C@@H](C(=O)N[C@@H](CC(N)=O)C(=O)N[C@@H](CC(N)=O)C(N)=O)NC(=O)C(C)(C)NC(=O)[C@H](Cc3ccc4ccccc4c3)NC2=O)cc1
B2: peptide compound SEQ ID NO: 41 (peptide)
peptide: Ac-KNTWQR[Tyr(Me)][2Nal][Thp]DNN-NH2
modifications: lactam 1-10
SMILES: COc1ccc(C[C@@H]2NC(=O)[C@H](CCCNC(=N)N)NC(=O)[C@H](CCC(N)=O)NC(=O)[C@H](Cc3c[nH]c4ccccc34)NC(=O)[C@H]([C@@H](C)O)NC(=O)[C@H](CC(N)=O)NC(=O)[C@@H](NC(C)=O)CCCCNC(=O)C[C@@H](C(=O)N[C@@H](CC(N)=O)C(=O)N[C@@H](CC(N)=O)C(N)=O)NC(=O)C3(CCOCC3)NC(=O)[C@H](Cc3ccc4ccccc4c3)NC2=O)cc1
B3: peptide compound SEQ ID NO: 5 (peptide)
peptide: Ac-[dK]NTWQR[Tyr(Me)][2Nal][Aib]ENN-NH2
modifications: lactam 1-10
SMILES: COc1ccc(C[C@@H]2NC(=O)[C@H](CCCNC(=N)N)NC(=O)[C@H](CCC(N)=O)NC(=O)[C@H](Cc3c[nH]c4ccccc34)NC(=O)[C@H]([C@@H](C)O)NC(=O)[C@H](CC(N)=O)NC(=O)[C@H](NC(C)=O)CCCCNC(=O)CC[C@@H](C(=O)N[C@@H](CC(N)=O)C(=O)N[C@@H](CC(N)=O)C(N)=O)NC(=O)C(C)(C)NC(=O)[C@H](Cc3ccc4ccccc4c3)NC2=O)cc1
B4: peptide compound SEQ ID NO: 6 (peptide)
peptide: Ac-DNTWQR[Tyr(Me)][2Nal][Aib][Orn]NN-NH2
modifications: lactam 1-10
SMILES: COc1ccc(C[C@@H]2NC(=O)[C@H](CCCNC(=N)N)NC(=O)[C@H](CCC(N)=O)NC(=O)[C@H](Cc3c[nH]c4ccccc34)NC(=O)[C@H]([C@@H](C)O)NC(=O)[C@H](CC(N)=O)NC(=O)[C@@H](NC(C)=O)CC(=O)NCCC[C@@H](C(=O)N[C@@H](CC(N)=O)C(=O)N[C@@H](CC(N)=O)C(N)=O)NC(=O)C(C)(C)NC(=O)[C@H](Cc3ccc4ccccc4c3)NC2=O)cc1
B5: peptide compound SEQ ID NO: 7 (peptide)
peptide: Ac-[dK]NTWQL[Tyr(Me)][1Nal][Aib]DNN-NH2
modifications: lactam 1-10
SMILES: COc1ccc(C[C@@H]2NC(=O)[C@H](CC(C)C)NC(=O)[C@H](CCC(N)=O)NC(=O)[C@H](Cc3c[nH]c4ccccc34)NC(=O)[C@H]([C@@H](C)O)NC(=O)[C@H](CC(N)=O)NC(=O)[C@H](NC(C)=O)CCCCNC(=O)C[C@@H](C(=O)N[C@@H](CC(N)=O)C(=O)N[C@@H](CC(N)=O)C(N)=O)NC(=O)C(C)(C)NC(=O)[C@H](Cc3cccc4ccccc34)NC2=O)cc1
B6: peptide compound SEQ ID NO: 8 (peptide)
peptide: Ac-[dK]NTWQA[Tyr(Me)][1Nal][Aib]DNN-NH2
modifications: lactam 1-10
SMILES: COc1ccc(C[C@@H]2NC(=O)[C@H](C)NC(=O)[C@H](CCC(N)=O)NC(=O)[C@H](Cc3c[nH]c4ccccc34)NC(=O)[C@H]([C@@H](C)O)NC(=O)[C@H](CC(N)=O)NC(=O)[C@H](NC(C)=O)CCCCNC(=O)C[C@@H](C(=O)N[C@@H](CC(N)=O)C(=O)N[C@@H](CC(N)=O)C(N)=O)NC(=O)C(C)(C)NC(=O)[C@H](Cc3cccc4ccccc34)NC2=O)cc1

The molecules below were run against T1, IL-23 receptor on the surface of … (assay: cell-based or functional assay). Conditions: not given.

Molecule	Inhibition of IL-23 induced pSTAT3 (IC50 nM) [nM]
B1	320
B2	221
B3	432
B4	366
B5	850
B6	943

What follows are molecules tested on IL-23 induced STAT3 signaling (assay: Inhibition of IL-23 induced STAT3 signaling in HEK-Blue IL-23 cells (SEAP reporter)). Conditions: human IL-23 0.25 ng/ml, read-out: Inhibition of IL-23 induced pSTAT3 (IC50 nM).
Format: cell-based
From the text: HEK-Blue™ IL-23 cells (Invivogen) are designed for the detection of bioactive human (hIL-23) and murine IL-23 (mIL-23) by monitoring the activation of the STAT3 pathway. Binding of IL-23 to its receptor on the surface of HEK-Blue™ IL-23 cells triggers a signaling cascade leading to the activation of STAT3 and the subsequent production of secreted embryonic alkaline phosphatase (SEAP). This can be readily assessed using QUANTI-Blue™ Solution, a SEAP detection reagent.
HEK-Blue™ IL-23 cells were cultured as described by Invivogen.
On the first day of assay 10 μL of the HEK-Blue IL-23 cell suspension (final concentration: 10,000 cells/well) and 10 μl of serially diluted compound solutions were dispensed into a 384-well assay plate. After pre-incubation of the reaction mixtures at 37° C./5% CO2/95% humidity for 60 minutes, 10 μl of the humanIL-23 cytokine (final concentration: 0.25 ng/ml) was added to each well for the STAT3 signaling activation. The plate was incubated overnight at 37° C./5% CO2/95% humidity.
On the second day 20 μl per well of Quanti-Blue detection solution (prepared according to the manufacture instruction) was dispensed into a new 384-well plate and followed by the transfer of 5 μl supernatant of the overnight incubated cell/sample mixtures. After incubation of 45 min at room temperature signals were measured with PHERAstar (BMG) at OD 620-655 nm.
Dose response data were fitted with XLfit.

Molecule	IC50 [nM]
COc1ccc(C[C@@H]2NC(=O)[C@H](CCCNC(=N)N)NC(=O)[C@H](CCC(N)=O)NC(=O)[C@H](Cc3c[nH]c4ccccc34)NC(=O)[C@H]([C@@H](C)O)NC(=O)[C@H](CC(N)=O)NC(=O)[C@H](NC(C)=O)CCCCNC(=O)C[C@@H](C(=O)N[C@@H](CC(N)=O)C(N)=O)NC(=O)C(C)(C)NC(=O)[C@H](Cc3ccc4ccccc4c3)NC2=O)cc1 [compound 26] (Ac-[dK]NTWQRY(Me)[2Nal][Aib]DN-NH2; lactam 1-10)	8110
COc1ccc(C[C@@H]2NC(=O)[C@H](CCCNC(=N)N)NC(=O)[C@H](CCC(N)=O)NC(=O)[C@H](Cc3c[nH]c4ccccc34)NC(=O)[C@H]([C@@H](C)O)NC(=O)[C@H](CC(N)=O)NC(=O)[C@H](NC(C)=O)CCCCNC(=O)C[C@@H](C(=O)N[C@@H](CC(N)=O)C(=O)N[C@@H](CC(N)=O)C(N)=O)NC(=O)[C@H](CCC(N)=O)NC(=O)[C@H](Cc3cccc4ccccc34)NC2=O)cc1 [compound 19] (Ac-[dK]NTWQRY(Me)[1Nal]QDNN-NH2; lactam 1-10)	9600
CC(=O)N[C@@H]1CCCCNC(=O)C[C@@H](C(=O)N[C@@H](CC(N)=O)C(=O)N[C@@H](CC(N)=O)C(N)=O)NC(=O)C(C)(C)NC(=O)[C@H](Cc2cccc3ccccc23)NC(=O)[C@H](Cc2ccc(O)cc2)NC(=O)[C@H](CCCNC(=N)N)NC(=O)[C@H](CCC(N)=O)NC(=O)[C@H](Cc2c[nH]c3ccccc23)NC(=O)[C@H]([C@@H](C)O)NC(=O)[C@H](CC(N)=O)NC1=O [compound 14] (Ac-[dK]NTWQRY[1Nal][Aib]DNN-NH2; lactam 1-10)	1380
COc1ccc(C[C@@H]2NC(=O)[C@H](CCCNC(=N)N)NC(=O)[C@H](CCC(N)=O)NC(=O)[C@H](Cc3c[nH]c4ccccc34)NC(=O)[C@H]([C@@H](C)O)NC(=O)[C@H](CC(N)=O)NC(=O)[C@H](NC(C)=O)CCCCNC(=O)C[C@@H](C(=O)N[C@@H](CC(N)=O)C(=O)N[C@@H](CC(N)=O)C(N)=O)NC(=O)[C@H](CCC(N)=O)NC(=O)[C@H](Cc3ccc4ccccc4c3)NC2=O)cc1 [compound 30] (Ac-[dK]NTWQRY(Me)[2Nal]QDNN-NH2; lactam 1-10)	6050
COc1ccc(C[C@@H]2NC(=O)[C@H](CCCNC(=N)N)NC(=O)[C@H](CCC(N)=O)NC(=O)[C@H](Cc3c[nH]c4ccccc34)NC(=O)[C@H]([C@@H](C)O)NC(=O)[C@H](CC(N)=O)NC(=O)[C@H](NC(C)=O)CCCCNC(=O)C[C@@H](C(=O)N[C@@H](CC(N)=O)C(=O)N[C@@H](CC(N)=O)C(N)=O)NC(=O)[C@H](CCCCNC(C)=O)NC(=O)[C@H](Cc3ccc4ccccc4c3)NC2=O)cc1 [compound 28] (Ac-[dK]NTWQRY(Me)[2Nal]K(Ac)DNN-NH2; lactam 1-10)	2210
COc1ccc(C[C@@H]2NC(=O)[C@H](CCCNC(=N)N)NC(=O)[C@H](CCC(N)=O)NC(=O)[C@H](Cc3c[nH]c4ccccc34)NC(=O)[C@H]([C@@H](C)O)NC(=O)[C@H](CC(N)=O)NC(=O)[C@H](NC(C)=O)CCCCNC(=O)C[C@@H](C(=O)N[C@@H](CC(N)=O)C(=O)N[C@@H](CC(N)=O)C(N)=O)NC(=O)[C@H](CCCCNC(C)=O)NC(=O)[C@H](Cc3cccc4ccccc34)NC2=O)cc1 [compound 17] (Ac-[dK]NTWQRY(Me)[1Nal]K(Ac)DNN-NH2; lactam 1-10)	5650
CC(=O)N[C@H]1CCCNC(=O)CC[C@@H](C(=O)N[C@@H](CC(N)=O)C(=O)N[C@@H](CC(N)=O)C(N)=O)NC(=O)C(C)(C)NC(=O)[C@H](Cc2ccc3ccccc3c2)NC(=O)[C@H](Cc2ccc(OCCN)cc2)NC(=O)[C@H](CCCNC(=N)N)NC(=O)[C@H](CCC(N)=O)NC(=O)[C@H](Cc2c[nH]c3ccccc23)NC(=O)[C@H]([C@@H](C)O)NC(=O)[C@H](CC(N)=O)NC1=O [compound 38] (Ac-[Orn]NTWQR[AEF][2Nal][Aib]ENN-NH2; lactam 1-10)	1570
COc1ccc(C[C@@H]2NC(=O)[C@H](CCCNC(=N)N)NC(=O)[C@H](CCC(N)=O)NC(=O)[C@H](Cc3c[nH]c4ccccc34)NC(=O)[C@H]([C@@H](C)O)NC(=O)[C@H](CC(N)=O)NC(=O)[C@H](NC(C)=O)CCCCNC(=O)CC[C@@H](C(=O)N[C@@H](CC(N)=O)C(=O)N[C@@H](CC(N)=O)C(N)=O)NC(=O)C(C)(C)NC(=O)[C@H](Cc3cccc4ccccc34)NC2=O)cc1 [compound 16] (Ac-[dK]NTWQRY(Me)[1Nal][Aib]ENN-NH2; lactam 1-10)	8010
